According to paper PMC10892451, “Evaluation of the Antibacterial Activity of New Dermaseptin Derivatives against Acinetobacter baumannii” (Pharmaceuticals, 2024):
≈ marks a conversion by molar mass, not a printed value. Ends that are not written are not given here.

How the values were obtained:
[1] = system: A. baumannii clinical specimen MDR; experiment: microbe, parasite or virus in culture; details: for A. baumannii MBC: 10 μL of wells at or above MIC seeded onto Mueller-Hinton agar, clinical MDR isolate, triplicate
Procedure: After determining the MIC, the MBC was assessed against A. baumannii MDR. Meropenem was used as an antibacterial control drug. The loaded solvent saline served as a negative control. […] Meropenem targets Gram-positive and Gram-negative bacteria, as well as anaerobic bacteria. Similar to other carbapenems, meropenem disrupts the synthesis of bacterial cell walls, inhibiting growth and leading to cell death.
(§1) The bacterial strain used in the present study came from the stock culture of the microbiology laboratory of the Federal University of the Delta of Parnaíba—UFDPar, Parnaíba—PI, Brazil. The strain used in the tests was A. baumannii clinical specimen MDR (multidrug resistant), which developed resistance to major antibiotic classes and carbapenem-resistant isolates. Before performing all experiments, the selected strains were cultured in Petri dishes containing Mueller-Hinton agar (Difco™, Piaui, Brazil). Then, under aerobic conditions, they were incubated in a bacteriological oven for 24 h at 35 ± 2 °C. After incubation, the colonies that grew alone were collected with a disposable bacteriological loop and suspended in a sterile saline solution (0.85% NaCl (w/v), Parnaíba—UFDPar, Piaui, Brazil) in order to reach an absorbance pattern between 0.08 and 0.13 at 625 nm, as tested with a UV-vis spectrophotometer (Shimadzu, Japan), thus corresponding to 0.5 McFarland scale (1–2 × 10^8 CFU/mL), as recommended by the Clinical Laboratory Standards Institute CLSI [75]. Once standardized, the obtained bacterial suspension was used to prepare the bacterial inoculum used in the execution of MIC determination protocols.
(§2) In accordance with the standards recommended by CLSI [75], the antibacterial potential of the peptides was evaluated with the method of determining the MIC, i.e., the broth microdilution method. Using a 96-well microdilution plate (KASVI, Parnaíba, Brazil), the antibacterial effect was analyzed against the bacterial strains. Therefore, 5 μL of each peptide was added to the first line of the microtiter wells containing 195 μL Mueller-Hinton (M-H) broth (Life Technologies, New York, NY, USA), followed by two-fold serial dilutions with final concentrations ranging from 25 µg/mL to 0.19 µg/mL for all peptides. The volume of the bacterial inoculum was equal to 50 µL, which was added to the test wells with the M-H broth at the beginning of the experiment to give a final concentration of 5 × 10^5 CFU/mL and to reach a final volume of 100 μL in each well after discarding the last additional volume of 100 μL following the serial dilution. MIC was defined as the lowest concentration of an antibacterial agent expressed in μg/mL, which, under strictly controlled in vitro conditions, completely prevents visible bacterial growth after incubation for 24 h at 37 °C in aerobic conditions. […] All tests were performed in triplicate. In order to guarantee the quality and safety of the protocols of this study, the manipulation of bacterial strains was performed under aseptic conditions.

[2] = system: A. baumannii clinical specimen MDR; experiment: microbe, parasite or virus in culture; details: for A. baumannii MIC: broth microdilution, Mueller-Hinton broth, 5 × 10^5 CFU/mL, 24 h at 37 °C, clinical MDR isolate, triplicate
Procedure: as §1, §2

A. baumannii MDR = experiment: AFM average surface roughness of treated bacteria; assay type: cell-based, Acinetobacter baumannii; details: AFM tapping mode, bacteria from MIC assay wells after 24 h, n = 10 areas of 0.3 × 0.3 µm; non-treated bacteria 25.77 nm
Text: In order to understand how our cationic peptide eliminates bacteria, we must consider its effect on the outer membrane found in Gram-negative bacteria. Here, we use atomic force microscopy (AFM) to directly investigate K4S4(1-16) interactions with the outer membrane of A. baumannii and characterize the biophysical consequences of K4S4(1-16) treatment. However, Gram-negative bacteria are complex organisms, with two membranes and molecular machinery dedicated to maintaining membrane stability. The images show the morphology of a clinical strain of A. baumannii before and after treatment with the derivative. […] The cell differed considerably from the cocci-bacilli-shaped cell observed without peptide treatment. Therefore, this cationic peptide appears to have a highly disruptive effect. […]
With the objective of observing possible morphological alterations caused by the action of an active peptide from the DRS families, bacterial growth control and bacteria treated with K4S4 (1-16) were evaluated using Atomic Force Microscopy (AFM). […]
Statistical analyses were performed with the GraphPad Prism 9.0 software (GraphPad Software Inc.) for cell viability assays. The difference between the average roughness (Ra) was statistically analyzed using t Test in the GraphPad Prism 8.0 software. […]

HEp-2 cells [3] = experiment: MTT cytotoxicity assay on HEp-2 cells; assay type: cell-based, human; details: peptide concentration causing 50% cytotoxicity, 72 h treatment, 1.5-100 μg/mL, triplicate at three different times
Procedure: It was obtained from the American Type Culture Collection (ATCC, Manassas, VA, USA). Cells were routinely maintained in a humidified atmosphere of 5% CO2 at 37 °C. The Culture Medium Dulbecco’s Modified Eagle Medium (DMEM) (Biofaster, Tunis, Tunisia) was supplemented with 1% L-glutamine, 1% penicillin/streptomycin and 10% (v/v) heat inactivated fetal bovine serum (FBS)(Biofaster, Tunis, Tunisia).
The cytotoxicity test consisted of measuring the viability of cells in culture when they came into contact with the peptides being tested. Cytotoxicity was determined using the 3-(4,5-dimethylthiazol-2-yl)-2,5-diphenyl tetrazolium bromide (MTT) colorimetric assay on cultured cells (HEp-2 lines). […] After 72 h of incubation, the supernatant was collected and the viability of the cells treated with the peptides was determined by the MTT method. […] After 4 h of incubation at 37 °C, the optical density (OD) was measured at 570 nm using an ELISA reader (Multiskan EX, Labsystems, Paris, France), after adding 100 μL of DMSO to dissolve the crystals of formazan. The results were expressed as a percentage of viability relative to the negative control without a peptide, according to the formula: (Viability percentage = (DO544 nm peptide/DO544 nm control) × 100). […]

HEp-2 cells [4] = details: cited from earlier work
Procedure: (§3) Cells were exposed to increasing concentrations of peptides, ranging from 1.5 to 100 μg/mL. The cytotoxicity of DRSs was concentration dependent, and peptide 50% cytotoxic concentration (CC50) values were determined (Table 2).

[5] = cited from earlier work
[6] = system: multi-drug resistant Salmonella Enteritidis; details: cited from earlier work
[7] = cited from earlier work; remark: listed apart in the source
Procedure: as §3

Molecule | A. baumannii MBC [1] [µg/mL] | A. baumannii MIC [2] [µg/mL] | also measured
C[C@@H](O)[C@H]1C(=O)N2C(C(=O)O)=C(S[C@@H]3CN[C@H](C(=O)N(C)C)C3)[C@H](C)[C@H]12 [meropenem] |  |  | MBC ([1]; Acinetobacter baumannii, read-out: A. baumannii MBC): 64 µg/mL (≈ 167 µM); MIC ([2]; Acinetobacter baumannii, 24 h, read-out: A. baumannii MIC): 32 µg/mL (≈ 83.4 µM)
ALWKTLLKKVLKAAAK [K4S4(1-16)] | 12.5 | 6.25 | roughness on the cell surface after treatment (A. baumannii MDR): 43.41 nm; CC50 Hep-2 Cells (HEp-2 cells [3]): 68.9 µg/mL
ALWKTLLKKVLKAAAKAALKAVLVGANA [K4K20S4] | 6.25 | 3.125 | 
ALWMTLLKKVLKAAAKAALNAVLVGANA-OH [S4] | 25 | 12.5 | maximal non-cytotoxic concentration (HEp-2 cells [4]): 16 µg/mL; hemolytic effect [5]: potent hemolytic effect
GLKKKIKEVGKEAAKAAAKAAGKAALGAVSEAV [K3K4B2] | 12.5 | 6.25 | 
GLWSKIKEVGKEAAKAAAKAAGKAALGAVSEAV-OH [B2] | 25 | 12.5 | 
lactoferricin (17–30): other AMP from the literature (CLAAPRKNVRWCTI; ends and bridges not checked; cysteine pairing not given here; UniProt P24627 17-30, looked up, fragment) |  |  | MIC [6]: 128 µg/mL; cytotoxicity at lower concentrations ([7]; 1X and 2X MIC): negligible cytotoxicity; cytotoxicity at 4X MIC ([7]; 4X MIC): slightly higher cytotoxicity
